Patent US11465972B2, “Inhibitors of oxidized low-density lipoprotein receptor 1 and methods of use thereof” (United States Government as represented by the Department …, priority 2015, dated 2022)
“Also recorded” adds a separate entry of the source.

Legend:
Type in all cases: cell-based, human
[1] = test system: adhesion of monocytes to HUVECs; assay: Monocyte adhesion assay on HUVECs; conditions: 200 nM; for effect on monocyte adhesion to HUVECs (in words): ox-LDL treated
Protocol: FIG. 4A, FIG. 4B, FIG. 4C, FIG. 4D and FIG. 4E depict the effect of lead molecules on ox-LDL-induced the activation of MAPKs in HUVECs, VCAM-1 expression and monocyte adhesion onto HUVECs. […] (FIG. 4B) Western blot analyses showing phospho-p38MAPK expression in HUVECs following exposure to 200 nM of each compound for 30 min, and subsequently exposed to 5 μg/mL ox-LDL for 6 hours. […] (FIG. 4D) The variation of VCAM-1 mRNA expression levels with different concentrations of the led compounds. The concentrations are indicated on the X-axis and the VCAM-1 mRNA levels are shown on the Y-axis. The plots for all five molecules are shown in separate colors. […] Graphs show data as mean (±SD); n=3 (for Western blot and PCR assays) or n=20 (for monocyte adhesion assay). *P<0.01 vs. control; #P<0.01 or <0.05 vs. ox-LDL group.
The ox-LDL-induced expression of adhesion molecules, such as VCAM-1, facilitates the adhesion of inflammatory cells, such as monocytes.
Human monocytes were isolated from blood from the healthy donors and cultured in DMEM supplemented with 10% FBS. HUVECs were plated into 6-well plates. When the cells reached 70-80% confluence, they were treated with 200 nM of each of 5 molecules for 30 min, and subsequently exposed to […] ox-LDL for 6 h. After washing with PBS, the medium was replaced, and then monocytes ([…]) were added to each well (4 wells/group) onto HUVECs. Thirty minutes later, the medium containing monocytes were aspired and the unattached monocytes were carefully washed out with PBS. Five fields of each well were randomly captured under a microscope. The number of adherent monocyte was counted and averaged.

[2] = test system: HUVECs; assay: Dil-ox-LDL uptake by HUVECs (flow cytometry); conditions: for effect on ox-LDL uptake by HUVECs (in words): 200 nM compound; for reduction of the uptake of ox-LDL by HUVECs: 200 nM concentration
Protocol: (§1) FIG. 3A, FIG. 3B, FIG. 3C and FIG. 3D depict the inhibitory effect of the lead compounds on Dil-ox-LDL uptake by HUVECs and CHO cells (measured by flow cytometry) and the effect of the lead compounds on ox-LDL-induced LOX-1 mRNA and protein expression. (FIG. 3A) (Upper Panel) Flow cytometry measurements using HUVECs in the presence of the five lead compounds (Mol-1-Mol-5), each a at 200 nM concentration. (Lower Panel) The percentage of internalized ox-LDL. Graphs show data as mean (±SD); n=4. *P<0.01 or <0.05 vs. control. (FIG. 3B) IC50 value for Mol-5. IC50 value (in nM) is based on inhibition of Dil-ox-LDL uptake in CHO cells overexpressing human LOX-1. Graphs show data as mean (±SD); n=5. *P<0.01 or <0.05 vs. control. (FIG. 3C) Western blotting assay showing LOX-1 protein expression in HUVECs following incubation with 200 nM Mol-1 to Mol-5 for 30 min, and subsequently exposure to 5 μg/mL ox-LDL for 6 hours. (FIG. 3D) The variation of LOX-1 mRNA expression levels at different concentrations of the compounds following exposure of HUVECs to 5 μg/mL ox-LDL. The concentrations are indicated on the X-axis and the LOX-1 mRNA levels are shown on the Y-axis. The plots for all the five molecules are shown in separate colors. Graphs show data as mean (±SD); n=3. *P<0.01 vs. control; #P<0.01 vs. ox-LDL group.
For further characterization, human endothelial cells and fluorescently-labeled Dil-ox-LDL were used for measuring initiation of atherogenic process based on interaction of vascular wall with ox-LDL. Ox-LDL uptake by human umbilical vein endothelial cells (HUVECs) was measured after exposure to 200 nM of each compound using flow cytometry. […] The dose response to modulation of ox-LDL uptake by Mol-5 (0, 20, 200 and 2000 nM) was also measured in CHO cells overexpressing human LOX-1. […] A second dose response curve was conducted to narrow in on the effect of lower concentrations of Mol-5 on ox-LDL uptake (FIG. 6A). Using this information the EC50 was estimated to be […] (FIG. 6B).
The primary HUVECs were purchased from ATCC (Manassas, Va.) and cultured in vascular cell basal medium with supplements (including 10 mL fetal bovine serum, 10 mM L-glutamine, 0.5 tg hydrocortisone hem isuccinate, 25 tg ascorbic acid, 2.5 ng rhVEGF, 2.5 ng rhEGF, 2.5 ng rh FGF, 7.5 ng rhIGF-1 and 0.375 units heparin sulfate). Cells from passages 3 and 4 were used in this study.
HUVECs were plated into 6-well plates and cultured until the cells reached 70% confluence. The cells were exposed to […] Dil-ox-LDL for 30 min after treatment with 200 nM of each of 5 molecules for 30 min, and then washed with PBS for 3 times. After washing, the cells were digested with trypsin and washed with PBS, and suspended in 400 tL PBS, and analyzed with a flow-cytometer (Becton Dickinson, Mountain View, Calif.). For further confirm the inhibitory effects of Mol-5 on Dil-ox-LDL uptake, we also measured Dil-ox-LDL uptake by CHO cells after exposure to […] Mol-5 for 30 min. The CHO cells were stably transfected with human LOX-1 cDNA.

[3] = test system: LOX-1 mRNA; assay: ox-LDL-induced LOX-1 mRNA expression in HUVECs (q-PCR); conditions: for effect on ox-LDL-induced LOX-1 mRNA upregulation / LOX-1 transcription (in words): 5 μg/ml ox-LDL 6 h, 20, 200, 2000 nM; for reduction of LOX-1 transcription: 200 nM concentration
Protocol: as §1
LOX-1 mRNA levels in HUVECs treated with ox-LDL in the absence or presence of the lead molecules at varying concentrations was also measured.
HUVECs were plated into 12-well plates, and treated with 0, 20, 200 and 2000 nM of each of 5 molecules […] for 30 min, and subsequently exposed to […] ox-LDL for 6 h at 37° C. Total RNA was isolated from the treated HUVECs by using a RNeasy Mini-Kit […] according to the manufacturer's instructions. Prior to using, RNA was treated with DNase I and diluted to 100 ng/tL. 100 ng RNA was applied to synthesize cDNA with SuperScript III 1st Strand DNA Synthesis Kit. qPCR was performed using the Applied Biosystems Fast 7500HT real-time PCR system with a 20 tL reaction volume including 10 tL GoTaq qPCR Master Mix (Promega, Madison, Wis.), 100 ng of cDNA and 0.3 tM primers. Data was analyzed by using MX3000P software. Relative mRNA expression was quantified using the comparative threshold cycle (Ct) method. The sequences of primers used for PCR reaction have been described previously^30.

Structure (SMILES)	reduction of monocyte adhesion [1]	effect on monocyte adhesion to HUVECs (in words) [1]	effect on ox-LDL uptake by HUVECs (in words) [2]	reduction of the uptake of ox-LDL by HUVECs [2]	effect on ox-LDL-induced LOX-1 mRNA upregulation / LOX-1 transcription (in words) [3]	reduction of LOX-1 transcription [3]
CCOCCCNC(=O)CCN1C(=O)COc2ccccc21 [Mol-1]	25%	decreased the number of monocytes adherent to HUVECs; also recorded: markedly inhibited	moderate inhibitory effect	about 35%	–	–
CC(C)(C)C(=O)NCCc1nc2ccccc2n1Cc1ccccc1F [Mol-2]	–	–	no significant effect	–	no significant effect	–
CCCn1c(CCNC(=O)CCCO)nc2ccccc21 [Mol-4]	30%	decreased the number of monocytes adherent to HUVECs; also recorded: markedly inhibited	significantly and potently inhibited	65%	significantly reduced	47%
Cc1cc(C)n(CC(O)COc2ccccc2)n1 (stereo not drawn) [Mol-5, 1-(3,5-dimethyl-1H-pyrazol-1-yl)-3-phenoxypropan-2-ol]	35%	decreased the number of monocytes adherent to HUVECs; also recorded: markedly inhibited	significantly and potently inhibited; also recorded: maximum inhibitory effect	80%	significantly reduced	70%
